Target: Glycogen synthase kinase-3 beta (Homo sapiens, UniProt P49841)
Assay: GSK3beta kinase inhibitor potency, dose response, biochemical, luminescence, cell-free homogeneous, retest (AID 434954)

Glycogen synthase kinase-3 beta, sequence (P49841 whole entry): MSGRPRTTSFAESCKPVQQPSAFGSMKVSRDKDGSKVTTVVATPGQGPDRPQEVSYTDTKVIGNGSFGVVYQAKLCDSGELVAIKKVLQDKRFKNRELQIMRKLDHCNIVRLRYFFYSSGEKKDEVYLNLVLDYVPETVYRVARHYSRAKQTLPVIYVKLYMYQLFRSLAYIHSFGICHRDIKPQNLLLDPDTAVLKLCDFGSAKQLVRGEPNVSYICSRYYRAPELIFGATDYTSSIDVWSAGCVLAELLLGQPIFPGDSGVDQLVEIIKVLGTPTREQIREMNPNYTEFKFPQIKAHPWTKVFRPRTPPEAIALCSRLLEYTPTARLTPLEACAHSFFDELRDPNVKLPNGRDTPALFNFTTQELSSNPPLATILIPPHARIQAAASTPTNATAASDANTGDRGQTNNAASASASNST

SMILES	EC50 [µM]
Cn1nc(C(F)(F)F)c2cc(NC(=O)OCc3ccc(C(C)(C)C)cc3)sc21 [(4-tert-butylphenyl)methyl N-[1-methyl-3-(trifluoromethyl)thieno[2,3-c]pyrazol-5-yl]carbamate]	> 300
CCN(CC)CCN1C(=O)C(=O)C(C(=O)c2ccc(S(=O)(=O)N3CCOCC3)cc2)C1c1ccccc1 (stereo not given) [(4E)-1-[2-(diethylamino)ethyl]-4-[hydroxy-[4-(4-morpholinylsulfonyl)phenyl]methylidene]-5-phenylpyrrolidine-2,3-dione]	> 300
COc1cc(CN=Nc2ccc(C(F)(F)F)cn2)ccc1O [(4E)-2-methoxy-4-[[[5-(trifluoromethyl)-2-pyridinyl]hydrazo]methylidene]-1-cyclohexa-2,5-dienone]	10.1
Cc1cc(-c2onc3ccc(Cl)cc23)ccc1O [(4E)-4-(5-chloro-1H-2,1-benzoxazol-3-ylidene)-2-methylcyclohexa-2,5-dien-1-one]	> 300
COCCN1C(=O)N[C@@H](c2cccc(C(F)(F)F)c2)[C@H](C(C)=O)[C@H]1C [(4R,5S,6R)-5-acetyl-1-(2-methoxyethyl)-6-methyl-4-[3-(trifluoromethyl)phenyl]-1,3-diazinan-2-one]	> 300
Cc1n[nH]c2c1[C@@H](c1ccccc1[N+](=O)[O-])C(C#N)C(=N)O2 (stereo partly drawn) [(4S)-6-azanyl-3-methyl-4-(2-nitrophenyl)-2,4-dihydropyrano[2,3-c]pyrazole-5-carbonitrile]	9.65
Oc1ccc(CN=Nc2ccc(C(F)(F)F)cn2)cc1O [(4Z)-2-hydroxy-4-[[2-[5-(trifluoromethyl)pyridin-2-yl]hydrazinyl]methylidene]cyclohexa-2,5-dien-1-one]	16.1
CCc1cc(=O)oc2cc(OC(C)=O)cc(OC(C)=O)c12 [(5-acetyloxy-4-ethyl-2-oxidanylidene-chromen-7-yl) ethanoate]	28.5
COc1ccc2occ(C(=O)c3ccccc3)c2c1 [(5-methoxy-1-benzofuran-3-yl)-phenyl-methanone]	22.9
COc1ccc2oc(C)c(C(=O)c3ccc(C)cc3)c2c1 [(5-methoxy-2-methyl-3-benzofuranyl)-(4-methylphenyl)methanone]	> 300
O=c1[nH]c(=S)n(-c2ccccc2F)c(O)c1C=NCc1ccco1 [(5E)-1-(2-fluorophenyl)-5-[(furan-2-ylmethylamino)methylidene]-2-sulfanylidene-1,3-diazinane-4,6-dione]	80.2
CCCCCCN1C(=O)NC(=O)C(=CNCCCn2ccnc2)C1=O [(5E)-1-hexyl-5-[[3-(1-imidazolyl)propylamino]methylidene]-1,3-diazinane-2,4,6-trione]	14.3
O=C1/C(=C\c2ccc(O)cc2)SC(=S)N1Cc1ccccc1 [(5E)-5-[(4-hydroxyphenyl)methylidene]-3-(phenylmethyl)-2-sulfanylidene-1,3-thiazolidin-4-one]	> 300
COc1cc(CNC=C2C(=O)NC(=O)N(C(C)(C)C)C2=O)cc(OC)c1 [(5Z)-1-tert-butyl-5-[[(3,5-dimethoxyphenyl)methylamino]methylidene]-1,3-diazinane-2,4,6-trione]	> 300
CN1C(=Cc2ccc(F)cc2)C(=O)N=C1N [(5Z)-2-azanyl-5-[(4-fluorophenyl)methylidene]-1-methyl-imidazol-4-one]	> 300
CC1=C(C#N)C(=O)NC(=O)C1=NNc1cccc(C)c1 [(5Z)-4-methyl-5-[(3-methylphenyl)hydrazinylidene]-2,6-bis(oxidanylidene)pyridine-3-carbonitrile]	0.775
COc1ccc(C=C2SC(NCc3ccccc3)=NC2=O)cc1 [(5Z)-5-[(4-methoxyphenyl)methylidene]-2-[(phenylmethyl)amino]-1,3-thiazol-4-one]	7.01
CC1=C(C#N)C(=O)NC(=O)C1=CNc1ccc(S(=O)(=O)CCO)cc1 [(5Z)-5-[[[4-(2-hydroxyethylsulfonyl)phenyl]amino]methylidene]-4-methyl-2,6-bis(oxidanylidene)pyridine-3-carbonitrile]	> 300
CCCOc1cc(C)nc(-c2ccccc2O)n1 [(6E)-6-(6-methyl-4-propoxy-1H-pyrimidin-2-ylidene)-1-cyclohexa-2,4-dienone]	> 300
CCNc1nc(N)nc(-c2cc(Cl)ccc2O)n1 [(6E)-6-[6-amino-4-(ethylamino)-1H-1,3,5-triazin-2-ylidene]-4-chloro-1-cyclohexa-2,4-dienone]	3.56
Cc1cc(N2CCC(C)CC2)nc(-c2ccccc2O)n1 [(6E)-6-[6-methyl-4-(4-methyl-1-piperidinyl)-1H-pyrimidin-2-ylidene]-1-cyclohexa-2,4-dienone]	> 300
Oc1ccccc1CN=Nc1nnn[nH]1 [(6E)-6-[(2H-tetrazol-5-ylhydrazo)methylidene]-1-cyclohexa-2,4-dienone]	> 300
C[C@H]1CCCC(=O)CCCC=Cc2cc(O)cc(O)c2C(=O)O1 [(11S)-11-methyl-15,17-bis(oxidanyl)-12-oxabicyclo[12.4.0]octadeca-1(18),2,14,16-tetraene-7,13-dione]	5.45
COc1ccc(-c2nn(-c3ccccc3)cc2/C=C(\C#N)S(=O)(=O)c2ccccc2)cc1OC [(E)-2-(benzenesulfonyl)-3-[3-(3,4-dimethoxyphenyl)-1-phenyl-4-pyrazolyl]-2-propenenitrile]	> 300
O=C(O)/C=C/c1cccc2c1OCCO2 [(E)-3-(2,3-dihydro-1,4-benzodioxin-5-yl)-2-propenoic acid]	> 300
COc1cc(/C=C(\C#N)C(=O)c2c[nH]c3ccccc23)cc(OC)c1O [(E)-3-(4-hydroxy-3,5-dimethoxyphenyl)-2-(1H-indole-3-carbonyl)prop-2-enenitrile]	6.57
O=C(O)/C=C/C(=O)NCC1CCC(CNC(=O)/C=C/C(=O)O)CC1 (stereo not given) [(E)-4-[[4-[[[(E)-3-carboxy-1-oxoprop-2-enyl]amino]methyl]cyclohexyl]methylamino]-4-oxo-2-butenoic acid]	> 300
COc1ccc(/C=C/C(=O)NC2CCN(Cc3ccccc3)CC2)cc1OC [(E)-N-(1-benzylpiperidin-4-yl)-3-(3,4-dimethoxyphenyl)prop-2-enamide]	> 300

SMILES	EC50 [µM]
Cc1cc(NC(=O)/C=C/c2cccc(F)c2)n(-c2nc3ccccc3[nH]2)n1 [(E)-N-[2-(1H-benzimidazol-2-yl)-5-methylpyrazol-3-yl]-3-(3-fluorophenyl)prop-2-enamide]	> 300
N#CC(=Cc1c[nH]nc1-c1ccc(Br)cc1)C(=O)O [(Z)-3-[5-(4-bromophenyl)-1H-pyrazol-4-yl]-2-cyanoprop-2-enoic acid]	> 300
CCOC(=O)C=C(C)[N+]1=N[C-](c2ccc(OC)cc2)CC1c1cccc([N+](=O)[O-])c1 (stereo not given) [(Z)-3-[5-(4-methoxyphenyl)-3-(3-nitrophenyl)-3,4-dihydropyrazol-2-yl]-2-butenoic acid ethyl ester]	> 300
Cc1ccc(C(OCCN(C)C)c2cccc(C(F)(F)F)c2)cc1 (stereo not given) [(Z)-but-2-enedioic acid;N,N-dimethyl-2-[(4-methylphenyl)-[3-(trifluoromethyl)phenyl]methoxy]ethanamine]	> 300
CN1/C(=C/C=C(/C#N)C(N)=O)C(C)(C)c2ccccc21 [(Z,4E)-2-cyano-4-(1,3,3-trimethyl-2-indolylidene)-2-butenamide]	15.5
Cc1c(C(=O)OCc2ccccc2)nnn1-c1nonc1N [(phenylmethyl) 1-(4-azanyl-1,2,5-oxadiazol-3-yl)-5-methyl-1,2,3-triazole-4-carboxylate]	7.34
CC1=Nc2ncnn2C(c2cccnc2)C1C(=O)OCc1ccccc1 (stereo not given) [(phenylmethyl) 5-methyl-7-pyridin-3-yl-1,7-dihydro-[1,2,4]triazolo[1,5-a]pyrimidine-6-carboxylate]	28
COc1cccc(C2C(C(=O)OCc3ccccc3)C(C)=Nc3ncnn32)c1OC (stereo not given) [(phenylmethyl) 7-(2,3-dimethoxyphenyl)-5-methyl-1,7-dihydro-[1,2,4]triazolo[1,5-a]pyrimidine-6-carboxylate]	3.82
COc1cccc2cc(C(=O)OCc3ccccc3)c(=O)oc12 [(phenylmethyl) 8-methoxy-2-oxidanylidene-chromene-3-carboxylate]	> 300
CCNc1nc(N)c(C(=O)C23CC4CC(CC(C4)C2)C3)s1 [Adamantan-1-yl-(4-amino-2-ethylamino-thiazol-5-yl)-methanone]	> 300
OC[C@H]1O[C@@H](n2cnc3c(O)ncnc32)[C@H](O)[C@@H]1O [Atorel]	> 300
c1ccc(CNCC2COc3ccccc3O2)cc1 (stereo not given) [Benzyl-(2,3-dihydro-benzo[1,4]dioxin-2-ylmethyl)-amine]	> 300
CCN1C(=O)N[C@@H](c2ccccc2)[C@@H](C(=O)OC)[C@H]1C [CMLD004197]	> 300
Cc1ccc2nc3c(cc2c1)c(NC(=O)c1ccco1)nn3CC(C)C [Furan-2-carboxylic acid (1-isobutyl-6-methyl-1H-pyrazolo[3,4-b]quinolin-3-yl)-amide]	> 300
COc1cc(C(c2nnnn2C(C)(C)C)N2CCN(c3nc4ccccc4s3)CC2)ccc1O (stereo not given) [MLS000027473]	> 300
O=c1cc(NCc2ccccc2)nc2n1CCCS2 [MLS000027636]	> 300
Cc1ccsc1C1NC(=O)c2c(sc3c2CCCC3)N1 (stereo not given) [MLS000027648]	> 300
COC(=O)c1ccc(-n2c(O)cc(N3CCN(C(=O)c4ccco4)CC3)c2O)cc1 [MLS000027707]	> 300
Cc1nnc2n(-c3ccccc3)c(=O)c3c4c(sc3n12)CC(C)CC4 (stereo not given) [MLS000030539]	> 300
Cn1c(=O)[nH]c(=O)c2c1nc(Br)n2Cc1ccccc1Cl [MLS000031623]	> 300
COCCN(CC(=O)NCc1ccc(OC)cc1)C(=O)CCC(=O)Nc1nccs1 [MLS000032576]	> 300
COc1cccc(C(=O)c2sc(NC(C)C)nc2N)c1 [MLS000036929]	0.33
Cc1cc(NC(=O)CSc2nc(-c3cccnc3)ccc2C#N)no1 [MLS000036936]	> 300
COc1cc(C(=O)Nc2cccc(-c3nc4ncccc4o3)c2C)cc(OC)c1OC [MLS000039714]	> 300
O=C1NC(=O)N(Cc2ccc(F)cc2)C(=O)C1=CNCCN1CCCCC1 [MLS000040945]	> 300
CCCCc1cc(=O)oc2cc(C)cc(OCc3nn[nH]n3)c12 [MLS000041678]	> 300
COc1ccc2nc3c(cc2c1)c(NC(=O)c1cccs1)nn3CC(C)C [MLS000041975]	0.0951

Source: BindingDB's records for doi:10.7270/Q2TX3CTT (Broad Institute, 2010)
